Like-named read-outs stand apart in the source and are kept apart here.
Key:
[1] = system: MT-4 cells; assay: Cytotoxicity in mock-infected MT-4 cells, MTT method; type: cell-based; conditions: MTT method
[2] = system: HIV-1 WT strain (IIIB); assay: Anti-HIV-1 activity in MT-4 cells, MTT method, WT strain IIIB; type: cell-based
[3] = system: HIV-1 L100I; assay: microbe, parasite or virus in culture; type: cell-based; conditions: for EC50: Human immunodeficiency virus 1, MT4, read-out: EC50 L100I; for RF L100I: resistance fold, EC50 (mutant strain)/EC50 (WT strain); for SI L100I: selectivity index, ratio of CC50/EC50
[4] = system: HIV-1 E138K; assay: microbe, parasite or virus in culture; type: cell-based; conditions: for RF E138K: resistance fold, EC50 (mutant strain)/EC50 (WT strain); for SI E138K: selectivity index, ratio of CC50/EC50
[5] = Cytotoxicity in mock-infected MT-4 cells, MTT method; type: cell-based; conditions: human
[6] = system: HIV-1 Y181C; assay: microbe, parasite or virus in culture; type: cell-based; conditions: for RF Y181C: resistance fold, EC50 (mutant strain)/EC50 (WT strain); for SI Y181C: selectivity index, ratio of CC50/EC50
[7] = system: HIV-1 K103N + Y181C (RES056); assay: microbe, parasite or virus in culture; type: cell-based; conditions: for RF RES056: resistance fold, EC50 (mutant strain)/EC50 (WT strain); for SI RES056: selectivity index, ratio of CC50/EC50
[8] = biological target: HIV-1 RT (Human immunodeficiency virus type 1 group M subtype B, UniProt P03366); assay: HIV-1 RT inhibition assay; type: biochemical
[9] = system: HIV-1 Y188L; assay: microbe, parasite or virus in culture; type: cell-based; conditions: for RF Y188L: resistance fold, EC50 (mutant strain)/EC50 (WT strain); for SI Y188L: selectivity index, ratio of CC50/EC50
[10] = system: HIV-1 F227L + V106A; assay: microbe, parasite or virus in culture; type: cell-based; conditions: for RF F227L + V106A: resistance fold, EC50 (mutant strain)/EC50 (WT strain); for SI F227L + V106A: selectivity index, ratio of CC50/EC50
[11] = system: HIV-1 K103N; assay: microbe, parasite or virus in culture; type: cell-based; conditions: for RF K103N: resistance fold, EC50 (mutant strain)/EC50 (WT strain); for SI K103N: selectivity index, ratio of CC50/EC50
[12] = system: CYP1A2, CYP2C9, CYP2C19, CYP2D6 (range over isoforms); assay: Cytochrome P450 inhibition assay, summary over isoforms; type: in vitro ADME; conditions: human, human liver microsomes
[13] = cited from earlier work
[14] = In vivo pharmacokinetics in SD rats; design: species or system Sprague–Dawley (SD) rats
[15] = physchem
[16] = read-out: EC50 IIIB, MT-4 cells, MTT method, HIV-1 IIIB (WT)
[17] = Human immunodeficiency virus 1, MT4, read-out: EC50 E138K
[18] = Human immunodeficiency virus 1, MT4, read-out: EC50 Y181C
[19] = Human immunodeficiency virus 1, MT4, read-out: EC50 RES056
[20] = Human immunodeficiency virus 1, MT4, read-out: EC50 Y188L
[21] = Human immunodeficiency virus 1, MT4, read-out: EC50 F227L + V106A
[22] = Human immunodeficiency virus 1, IIIB, MT4, read-out: EC50 IIIB
[23] = Human immunodeficiency virus 1, MT4, read-out: EC50 K103N
[24] = Sprague-Dawley, rat, plasma, iv, 2 mg/kg
[25] = Sprague-Dawley, rat, plasma, po, 20 mg/kg

| Molecule | EC50 [3] [nM] | RF L100I [3] | SI L100I [3] | EC50 [4, 17] [nM] | RF E138K [4] | SI E138K [4] | CC50 at 5 days [5] [nM] | EC50 [6, 18] [nM] | RF Y181C [6] | SI Y181C [6] | EC50 [7, 19] [nM] | RF RES056 [7] | SI RES056 [7] | EC50 [9, 20] [nM] | RF Y188L [9] | EC50 [10, 21] [nM] | RF F227L + V106A [10] | EC50 [2, 22] [nM] | EC50 [11, 23] [nM] | RF K103N [11] | further results |
| --- | --- | --- | --- | --- | --- | --- | --- | --- | --- | --- | --- | --- | --- | --- | --- | --- | --- | --- | --- | --- | --- |
| 4-((1-(4-(4-Cyano-2,6-dimethylphenoxy)-7,8-dihydro-6H-thiopyrano[3,2-d]pyrimidin-2-yl)piperidin-4-yl)amino)benzenesulfonamide [19b] | – | – | – | – | – | – | – | – | – | – | – | – | – | – | – | – | – | – | – | – | CC50 [1]: 3070 ± 300 nM; EC50 IIIB ([2]; MT-4 cells, MTT method, HIV-1 IIIB (WT)): lost potency; EC50 [2, 16]: > 16100 nM |
| Cc1cc(/C=C/C#N)cc(C)c1Oc1nc(Nc2ccc(C#N)cc2)nc2c1SCCC2 [15b, (E)-4-((4-(4-(2-Cyanovinyl)-2,6-dimethylphenoxy)-7,8-dihydro-6H-thiopyrano[3,2-d]pyrimidin-2-yl)amino)benzonitrile] | 7.26 ± 0.51 | 2.3 | 674 | 21.7 ± 7.55 | 6.8 | 225 | 4890 ± 620 | 11.1 ± 3.39 | 3.5 | 441 | 23.5 ± 14.7 | 7.4 | 208 | 23.3 ± 0.48 | 7.3 | 27.9 ± 9.17 | 8.8 | 3.18 ± 1.21 | 6.42 ± 0.4 | 2.0 | Times greater activity than ETR, L100I ([3]; ratio of EC50 values vs ETR): 1.3 times; IC50 [8]: 101 ± 12 nM; SI Y188L [9]: 210; SI F227L + V106A [10]: 175; SI K103N [11]: 762 |
| Cc1cc(C#N)cc(C)c1Oc1nc(Nc2ccc(C#N)cc2)nc(N)c1Br [ETR, etravirine, reference compound] | 9.13 ± 6.1 | 3.2 | – | – | – | – | 2200 ± 15 | 14.1 ± 5.72 | 5.0 | – | 35.2 ± 19.7 | 12.5 | – | 15.4 ± 6.07 | 5.5 | 16.3 ± 6.24 | 5.8 | 2.81 ± 0.47 | 3.38 ± 0.69 | 1.2 | IC50 at 10 min [12]: 277 to 12000 nM; Water solubility (Sol.) [13]: < 1 µg/mL; V (iv) ([14]; SD rats, iv 2 mg/kg, mean ± SD, n = 3): 8.85 ± 1.17 L/kg; AUC(0-inf) [14, 24]: 587 ± 48 ng·h/mL; AUC(0-t) [14, 24]: 576 ± 45 ng·h/mL; MRT inf [14, 24]: 1.1 ± 0.34 h; MRT last [14, 24]: 0.93 ± 0.23 h; clearance [14, 24]: 57 mL/min/kg; half-life [14, 24]: 1.8 ± 0.24 h; bioavailability ([14]; Sprague-Dawley, rat, plasma, oral, 20 mg/kg): 7.17%; AUC(0-inf) [14, 25]: 421 ± 153 ng·h/mL; AUC(0-t) [14, 25]: 395 ± 139 ng·h/mL; Cmax [14, 25]: 110 ± 34.1 ng/mL; MRT inf [14, 25]: 3.03 ± 0.14 h; MRT last [14, 25]: 2.55 ± 0.04 h; Tmax [14, 25]: 1 h; half-life [14, 25]: 1.82 ± 0.07 h; solubility ([15]; pH 7, aqueous buffer): < 1 µg/mL; solubility ([15]; pH 7.4, aqueous buffer): < 1 µg/mL |
| Cc1ccnc2c1NC(=O)c1cccnc1N2C1CC1 [NVP, reference compound] | – | – | – | – | 1.3 | – | – | – | 32.0 | – | – | 18.8 | – | – | 37.4 | – | 30.0 | – | – | 30.0 | EC50 ([4]; read-out: EC50 E138K, MT-4 cells, MTT method): 158 ± 112 nM; CC50 [1]: > 15000 nM; EC50 ([6]; read-out: EC50 Y181C, MT-4 cells, MTT method): 3780 ± 2580 nM; EC50 ([7]; read-out: EC50 RES056, MT-4 cells, MTT method, RES056 (K103N + Y181C)): 2220 ± 736 nM; EC50 ([9]; read-out: EC50 Y188L, MT-4 cells, MTT method): 4420 ± 2470 nM; EC50 ([10]; read-out: EC50 F227L + V106A, MT-4 cells, MTT method): 3540 ± 2750 nM; EC50 [2, 16]: 118 ± 66.9 nM; EC50 ([11]; read-out: EC50 K103N, MT-4 cells, MTT method): 3550 ± 2410 nM |
| Cc1cc(/C=C/C#N)cc(C)c1Nc1ccnc(Nc2ccc(C#N)cc2)n1 [RPV, rilpivirine, reference compound] | – | 1.5 | – | – | 5.8 | – | – | – | – | – | – | – | – | – | 80 | – | 82 | 1 ± 0.27 | – | 1.3 | IC50 at 10 min [12]: 335 to 9110 nM; IC50 [8]: 118 ± 27 nM; Water solubility (Sol.) [13]: < 1 µg/mL |
| Cc1cc(C#N)cc(C)c1Oc1nc(Nc2ccc(C#N)cc2)nc2c1SCCC2 [compound 15a, 4-((2-((4-Cyanophenyl)amino)-7,8-dihydro-6H-thiopyrano[3,2-d]pyrimidin-4-yl)oxy)-3,5-dimethylbenzonitrile] | 16.7 ± 4.51 | 4.9 | 271 | 17.4 ± 2.24 | 5.1 | 260 | 4530 ± 720 | 42.3 ± 4.45 | 12.5 | 107 | 85.3 ± 54.3 | 25.2 | 53 | 20.7 ± 1.88 | 6.1 | 40.9 | 12.1 | 3.38 ± 3.17 | 6.41 ± 0.99 | 1.9 | SI Y188L [9]: 219; SI F227L + V106A [10]: 111; SI K103N [11]: 707 |
| Cc1cc(C#N)cc(C)c1Oc1nc(Nc2ccc(C#N)cc2)nc2c1S(=O)(=O)CCC2 [compound 16b, 4-((2-((4-Cyanophenyl)amino)-5,5-dioxido-7,8-dihydro-6H-thiopyrano[3,2-d]pyrimidin-4-yl)oxy)-3,5-dimethylbenzonitrile] | 21.8 ± 5.65 | 15.1 | 858 | 10.9 ± 0.32 | 7.6 | 1716 | 18700 ± 8010 | 10.4 ± 1.44 | 7.2 | 1798 | 49.1 ± 14 | 34.1 | 381 | 12.3 ± 2.27 | 8.5 | 37.9 ± 21.3 | 26.3 | 1.44 ± 0.17 | 2.3 ± 0.15 | 1.6 | IC50 [8]: 27 ± 11 nM; SI Y188L [9]: 1520; SI F227L + V106A [10]: 493; SI K103N [11]: 8130 |

From paper PMC10935503 (Acta Pharmaceutica Sinica. B, 2023)
